Patent US9708336B2, “Metallo-beta-lactamase inhibitors” (priority 2014, dated 2017)
Like-named read-outs stand apart in the source and are kept apart here.

Tests used:
VIM-1 = VIM-1 (Pseudomonas aeruginosa (strain ATCC 15692 / DSM 22644 / CIP 104116 / JCM 14847 / LMG 12228 / 1C / PRS 101 / PAO1), UniProt A0A0F7KYQ8); test: Enzyme activity: determination of IC50, fluorescence assay with CCF2-FA substrate (VIM-1); format: biochemical
[1] = test system: Serratia marcescens expressing IMP-1 (CL5741); test: Antibiotic potentiation activity: synergistic concentration (MITC95) with imipenem, OD600 growth; format: cell-based; conditions: for Serratia marcescens expressing IMP-1 (CL5741) MITC95: concentration giving 95% inhibition of bacterial growth
How it was run: (§1)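 CLB30005 was precultured on Mueller Hinton agar with 8 ug/ml imipenem, the other strains on trypticase soy agar with 5% sheep blood, overnight at 35 °C. Saline suspensions diluted 1:100 in 1.1× CAMHB received compound and 4 μg/ml imipenem, then 22–24 h at 35 °C before absorbance reading.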

[2] = test system: Klebsiella pneumoniae expressing VIM-1 (IHMA599644); test: as above; format: cell-based; conditions: for Klebsiella pneumoniae expressing VIM-1 (IHMA 599644) MITC95: concentration giving 95% inhibition of bacterial growth
How it was run: as §1

[3] = test system: Escherichia coli expressing NDM-1 (CLB30016); test: as above; format: cell-based; conditions: for Escherichia coli expressing NDM-1 (CLB 30016) MITC95: concentration giving 95% inhibition of bacterial growth
How it was run: as §1

IMP-1 = IMP-1 (Serratia marcescens, UniProt P52699); test: biochemical; format: biochemical; conditions: read-out: IMP-1 IC50
Sequence of IMP-1 (P52699 whole entry, looked up): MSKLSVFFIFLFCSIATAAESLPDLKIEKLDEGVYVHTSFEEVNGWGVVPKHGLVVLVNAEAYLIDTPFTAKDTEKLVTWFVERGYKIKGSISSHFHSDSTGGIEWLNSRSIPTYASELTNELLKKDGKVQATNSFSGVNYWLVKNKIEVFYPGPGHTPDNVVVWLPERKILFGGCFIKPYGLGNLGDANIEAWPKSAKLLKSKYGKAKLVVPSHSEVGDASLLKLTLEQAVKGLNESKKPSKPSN

NDM-1 = NDM-1 (Klebsiella pneumoniae, UniProt C7C422); test: biochemical; format: biochemical; conditions: read-out: NDM-1 IC50
Sequence of NDM-1 (C7C422 whole entry, looked up, species assumed): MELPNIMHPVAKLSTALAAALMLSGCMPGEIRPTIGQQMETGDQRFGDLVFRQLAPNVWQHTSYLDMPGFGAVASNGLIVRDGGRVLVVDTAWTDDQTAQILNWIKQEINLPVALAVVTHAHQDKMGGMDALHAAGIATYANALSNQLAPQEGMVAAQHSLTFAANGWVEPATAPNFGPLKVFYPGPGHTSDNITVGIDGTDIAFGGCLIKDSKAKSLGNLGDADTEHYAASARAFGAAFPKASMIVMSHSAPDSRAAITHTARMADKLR

[4] = VIM-1 enzyme, CCF2-FA fluorescence assay, read-out: VIM-1 IC50
[5] = Serratia marcescens expressing IMP-1 (CL5741), 95% growth inhibition
[6] = Klebsiella pneumoniae expressing VIM-1 (IHMA599644), 95% growth inhibition
[7] = Escherichia coli expressing NDM-1 (CLB30016), 95% growth inhibition
[8] = IMP-1 enzyme, CCF2-FA fluorescence assay
[9] = NDM-1 enzyme, CCF2-FA fluorescence assay
[10] = VIM-1 enzyme, CCF2-FA substrate, read-out: VIM-1 IC50
[11] = Serratia marcescens CL5741 (IMP-1), 95% growth inhibition
[12] = Klebsiella pneumoniae IHMA599644 (VIM-1), 95% growth inhibition
[13] = (CLB30016, NDM-1), 95% growth inhibition
[14] = IMP-1 enzyme, CCF2-FA substrate
[15] = NDM-1 enzyme, CCF2-FA substrate
[16] = fluorescence assay with CCF2-FA substrate, read-out: VIM-1 IC50
[17] = CL5741 (IMP-1), 95% inhibition of bacterial growth
[18] = IHMA599644 (VIM-1), 95% inhibition of bacterial growth
[19] = CLB30016 (NDM-1), 95% inhibition of bacterial growth
[20] = fluorescence assay with CCF2-FA substrate
[21] = VIM-1 IC50, fluorescence assay with CCF2-FA substrate

| SMILES | IC50 (VIM-1; [4]) [nM] | Serratia marcescens MITC95 [1, 5] [µM] | Klebsiella pneumoniae MITC95 [2, 6] [µM] | Escherichia coli MITC95 [3, 7] [µM] | IC50 (IMP-1; [8]) [nM] | IC50 (NDM-1; [9]) [nM] | IC50 (VIM-1; [16]) [nM] | Serratia marcescens MITC95 [1, 17] [µM] | Klebsiella pneumoniae MITC95 [2, 18] [µM] | Escherichia coli MITC95 [3, 19] [µM] | IC50 (IMP-1; [20]) [nM] | IC50 (NDM-1; [20]) [nM] | further results |
| --- | --- | --- | --- | --- | --- | --- | --- | --- | --- | --- | --- | --- | --- |
| Nc1ccnc2cc(-c3ccc(C(F)(F)F)c(S(N)(=O)=O)c3-c3nnn[nH]3)ccc12 [Example 478, 3-(4-amino-7-quinolyl)-2-(1-tetrazol-5-yl)-6-(trifluoromethyl)benzenesulfonamide] | 0.639 | 2.344 | 0.7813 | 0.7813 | 88.1 | 24.6 |  |  |  |  |  |  |  |
| NCCCCNc1nc2c(-c3cccc(S(N)(=O)=O)c3-c3nnn[nH]3)cccc2s1 [Example 642, 3-[2-(4-aminobutylamino)-1,3-benzothiazol-4-yl]-2-(1H-tetrazol-5-yl)benzenesulfonamide] |  |  |  |  |  |  |  |  |  |  |  |  | IC50 (VIM-1; [10]): 9 nM; Serratia marcescens MITC95 [1, 11]: 25 µM; Klebsiella pneumoniae MITC95 [2, 12]: 50 µM; Escherichia coli MITC95 [3, 13]: 1.563 µM; IC50 (IMP-1; [14]): 51.9 nM; IC50 (NDM-1; [15]): 1.01 nM |
| NS(=O)(=O)c1c(C(F)(F)F)ccc(N2CCC3(CCCNC3)CC2)c1-c1nnn[nH]1 [Example 776, 3-(2,9-diazaspiro[5.5]undec-9-yl)-2-(1H-tetrazol-5-yl)-6-(trifluoromethyl) benzenesulfonamide] |  |  |  |  |  |  | 15.9 | 50 | 25 | 25 | 55.9 | 15.2 |  |
| NS(=O)(=O)c1c(C(F)(F)F)ccc(-c2ccc3c(c2)CCNC3)c1-c1nnn[nH]1 [Example 721, 3-(1,2,3,4-tetrahydroisoquinolin-6-yl)-2-(1H-tetrazol-5-yl)-6-(trifluoromethyl)benzenesulfon-amide] |  |  |  |  |  |  |  |  |  |  |  |  | IC50 (VIM-1; [10]): 0.807 nM; Serratia marcescens MITC95 [1, 11]: 6.25 µM; Klebsiella pneumoniae MITC95 [2, 12]: 1.563 µM; Escherichia coli MITC95 [3, 13]: 6.25 µM; IC50 (IMP-1; [14]): 9.18 nM; IC50 (NDM-1; [15]): 3.02 nM |
| NS(=O)(=O)c1nccc(N2CCC(N3CCNCC3)CC2)c1-c1nnn[nH]1 [Example 227, 4-(4-piperazin-1-ylpiperidin-1-yl)-3-(1H-tetrazol-5-yl)pyridine-2-sulfonamide] |  |  |  |  |  |  | 261 |  |  |  | 7070 | 888 | Serratia marcescens expressing IMP-1 (CL5741) MITC95 [1]: 75 µM; Klebsiella pneumoniae expressing VIM-1 (IHMA 599644) MITC95 [2]: 6.25 µM; Escherichia coli expressing NDM-1 (CLB 30016) MITC95 [3]: 3.125 µM |
| NS(=O)(=O)c1c(C(F)(F)F)ccc(-c2ccc(C3CCNC3)cc2)c1-c1nn[nH]n1 (stereo not drawn) [Example 443, 4′-(pyrrolidin-3-yl)-2-(2H-tetrazol-5-yl)-4-(trifluoromethyl)-[1,1′-biphenyl]-3-sulfonamide] | 0.497 | 0.09375 | 0.8906 | 0.7734 | 1.34 | 0.909 |  |  |  |  |  |  |  |
| N=C(N)NC1CCN(c2ccc(C(F)(F)F)c(S(N)(=O)=O)c2-c2nnn[nH]2)CC1 [Example 824, 1-[1-[3-sulfamoyl-2-(1H-tetrazol-5-yl)-4-(trifluoromethyl)phenyl]-4-piperidyl]guanidine] |  |  |  |  |  |  | 0.702 | 0.7813 | 0.7813 | 1.563 | 59.2 | 53.1 |  |
| NS(=O)(=O)c1cccc(-c2ccc3nccnc3c2)c1-c1nnn[nH]1 [Example 405, 3-quinoxalin-6-yl-2-(1H-tetrazol-5-yl)benzenesulfonamide] | 16.9 | 1.563 | 62.5 | 1.563 | 67.6 | 4.23 |  |  |  |  |  |  |  |
| NS(=O)(=O)c1c(C(F)(F)F)ccc(N2CCC3(CCNCC3)CC2)c1-c1nnn[nH]1 [Example 783, 3-(3,9-diazaspiro[5.5]undecan-3-yl)-2-(1H-tetrazol-5-yl)-6-(trifluoromethyl) benzenesulfonamide] |  |  |  |  |  |  | 1.93 | 0.5859 | 2.344 | 1.172 | 13.4 | 4.91 |  |
| NS(=O)(=O)c1c(C(F)(F)F)ccc(-c2cccn3cncc23)c1-c1nnn[nH]1 [Example 485, 3-(Imidazo[1,5-a]pyridin-8-yl)-2-(1H-tetrazol-5-yl)-6-(trifluoromethyl)benzenesulfonamide] | 0.197 | 12.5 | 6.25 | 3.125 | 4.98 | 1.57 |  |  |  |  |  |  |  |
| NC1CC(N[C@H]2CC[C@H](c3ccc(C(F)(F)F)c(S(N)(=O)=O)c3-c3nnn[nH]3)CC2)C1 (stereo partly drawn) [Example 694, 3-{4-[(3-aminocyclobutyl)amino]cyclohexyl}-2-(1H-tetrazol-5-yl)-6-(trifluoromethyl)benzene sulfonamide] |  |  |  |  |  |  |  |  |  |  |  |  | IC50 (VIM-1; VIM-1 IC50, VIM-1 enzyme, CCF2-FA substrate): 2.46 nM; Serratia marcescens MITC95 [1, 11]: 1.563 µM; Klebsiella pneumoniae MITC95 [2, 12]: 1.563 µM; Escherichia coli MITC95 [3, 13]: 0.3906 µM; IC50 (IMP-1; [14]): 18.6 nM; IC50 (NDM-1; [15]): 4.84 nM |
| NC1(CN2CCC3(CCC(c4ccc(C(F)(F)F)c(S(N)(=O)=O)c4-c4nnn[nH]4)CC3)CC2)CC1 [Example 834, 3-[3-[(1-aminocyclopropyl)methyl]-3-azaspiro[5.5]undecan-9-yl]-2-(1H-tetrazol-5-yl)-6-(trifluoromethyl)benzenesulfonamide] |  |  |  |  |  |  | 13.3 | 6.25 | 50 | 6.25 | 5.45 | 1.49 |  |
| NS(=O)(=O)c1cccc(-c2cccc3c2NCCC3)c1-c1nnn[nH]1 [Example 121, 3-(1,2,3,4-tetrahydroquinolin-8-yl)-2-(1H-tetrazol-5-yl)benzenesulfonamide] |  |  |  |  |  |  | 187 |  |  |  | 373 | 7.37 | Serratia marcescens expressing IMP-1 (CL5741) MITC95 [1]: 25 µM; Klebsiella pneumoniae expressing VIM-1 (IHMA 599644) MITC95 [2]: >200 µM; Escherichia coli expressing NDM-1 (CLB 30016) MITC95 [3]: 3.125 µM |
| CC1(O)CCN(c2ccc(C(F)(F)F)c(S(N)(=O)=O)c2-c2nnn[nH]2)CC1 [Example 653, 3-(4-hydroxy-4-methypiperidin-1-yl)-2-(1H-tetrazol-5-yl)-6-(trifluoromethyl)benzenesulfonamide] |  |  |  |  |  |  |  |  |  |  |  |  | IC50 (VIM-1; [10]): 4.5 nM; Serratia marcescens MITC95 [1, 11]: 0.3906 µM; Klebsiella pneumoniae MITC95 [2, 12]: 6.25 µM; Escherichia coli MITC95 [3, 13]: 1.563 µM; IC50 (IMP-1; [14]): 4.82 nM; IC50 (NDM-1; [15]): 2.82 nM |
| NS(=O)(=O)c1cccc(-c2ccc(CN3CCC(C(=O)O)C3)cc2)c1-c1nnn[nH]1 (stereo not drawn) [Example 343, 1-{[3′-sulfamoyl-2′-(1H-tetrazol-5-yl)biphenyl-4-yl]methyl}pyrrolidine-3-carboxylic acid] | 1180 | 9.375 | 100 | 1.563 | 373 | 24.7 |  |  |  |  |  |  |  |
| NS(=O)(=O)c1c(C(F)(F)F)ccc(-c2ccc(C3CCN(C4CNC4)CC3)cc2)c1-c1nnn[nH]1 [Example 796, 4′-(1-azetidin-3-ylpiperidin-4-yl)-2-(1H-tetrazol-5-yl)-4-(trifluoromethyl)biphenyl-3-sulfonamide] |  |  |  |  |  |  |  | 6.25 | >200 | 6.25 | 0.345 | 2.06 | IC50 (VIM-1; [21]): 18 nM |
| NCc1ccc(-c2ccc(CC3CCNCC3)c(S(N)(=O)=O)c2-c2nn[nH]n2)cc1 [Example 593, 4′-(aminomethyl)-4-(piperidin-4-ylmethyl)-2-(2H-tetrazol-5-yl)biphenyl-3-sulfonamide] |  |  |  |  |  |  |  |  |  |  |  |  | IC50 (VIM-1; [10]): 31.6 nM; Serratia marcescens MITC95 [1, 11]: 6.25 µM; Klebsiella pneumoniae MITC95 [2, 12]: 3.125 µM; Escherichia coli MITC95 [3, 13]: 1.563 µM; IC50 (IMP-1; [14]): 273 nM; IC50 (NDM-1; [15]): 38.2 nM |
| NCCN[C@H]1CC[C@@H](c2ccc(C(F)(F)F)c(S(N)(=O)=O)c2-c2nnn[nH]2)CC1 [Example 828, 3-((1s,4s)-4-((2-aminoethyl)amino)cyclohexyl)-2-(1H-tetrazol-5-yl)-6-(trifluoromethyl)benzenesulfonamide] |  |  |  |  |  |  |  | 1.563 | 6.25 | 0.7813 | 72.9 | 8.29 | IC50 (VIM-1; [21]): 73.3 nM |
| NS(=O)(=O)c1cccc(-c2ccnc3ncccc23)c1-c1nnn[nH]1 [Example 406, 3-(1,8-naphthyridin-4-yl)-2-(1H-tetrazol-5-yl)benzenesulfonamide] | 1.74 | 6.25 | 3.125 | 1.172 | 250 | 1.65 |  |  |  |  |  |  |  |
